According to patent US8946266B2, “Substituted triazole and imidazole derivatives as gamma secretase modulators” (Janssen Pharmaceuticals, Inc., priority 2009, dated 2015):

How the values were obtained:
[1] = system: Aβtotal; assay: In vivo efficacy, Method 2: brain soluble Aβtotal lowering 4 h after a single oral dose, ELISA (Table 4b); parameters: species or system mouse; details: dose 30 mg/kg oral dosing
Procedure, shortened: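 Non-transgenic mice or rats, fasted overnight, received a single oral dose (30 mg/kg) in 20% Captisol or 20% hydroxypropyl β-cyclodextrin, or vehicle, and were sacrificed after 4 h. Right brain hemisphere was extracted in 0.4% DEA/50 mM NaCl, and soluble Aβtotal in the high-speed supernatant was measured by sandwich ELISA (JRF/rAβ/2 capture, biotinylated 4G8 detection, fluorogenic read-out).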

[2] = system: Aβ42; assay: In vivo efficacy, Method 2: brain soluble Aβ42 lowering 4 h after a single oral dose, ELISA (Table 4b); parameters: species or system mouse; details: dose 30 mg/kg oral dosing
Procedure, shortened: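 Overnight-fasted non-transgenic rodents got a single oral dose of 30 mg/kg in 20% Captisol or 20% hydroxypropyl β-cyclodextrin and were killed 4 h later. Right-hemisphere soluble fraction (0.4% DEA/50 mM NaCl extract, neutralised) was assayed for Aβ42 by sandwich ELISA with fluorogenic read-out, compared with untreated animals.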

melting point [°C]	Structure (SMILES)	Aβtotal (% Ctrl) _Mean [1] [% Ctrl]	Aβ42 (% Ctrl) _Mean [2] [% Ctrl]
	COc1cc(-c2nc(Nc3ccc(F)cc3C(F)(F)F)n(C)n2)ccc1-n1cnc(C)c1 [Compound 15]	−5	37
115.8	COc1cc(-c2nc(-c3ccccc3)n(C)n2)ccc1-n1cnc(C)c1 [Compound 9]		
	COc1cc(-c2nc(Nc3cccc(C(F)(F)F)c3)n(C)n2)ccc1-n1cnc(C)c1 [Compound 146]	2	17
